Results reported in ChEMBL document CHEMBL1137942, “Design, synthesis, and biological activity of novel, potent, and selective (benzoylaminomethyl)thiophene sulfonamide inhibitors of c-Jun-N-terminal kinase” (J Med Chem, 2004).
Calls of active or inactive are those of the source. The rule behind the calls is not given here.

Tests used:
[1] = target: Dual specificity mitogen-activated protein kinase kinase 6 (Homo sapiens) (UniProt P52564); experiment: Percentage activity of human MKK6 in the presence of 10 uM of compound and 10 uM of ATP in comparison with control
[2] = target: CDK6/cyclin D3 (Homo sapiens) (UniProt P30281+Q00534); experiment: Percentage activity of human CDK6 with cyclin D3) in the presence of 10uM of compound and 10uM of ATP in comparison with control; type: protein-complex assay
[3] = target: 3-phosphoinositide-dependent protein kinase 1 (Homo sapiens) (UniProt O15530); experiment: Percentage activity of human PDK1 in the presence of 10 uM of compound and 10 uM of ATP in comparison with control
Sequence of 3-phosphoinositide-dependent protein kinase 1 (Homo sapiens) (O15530 whole entry): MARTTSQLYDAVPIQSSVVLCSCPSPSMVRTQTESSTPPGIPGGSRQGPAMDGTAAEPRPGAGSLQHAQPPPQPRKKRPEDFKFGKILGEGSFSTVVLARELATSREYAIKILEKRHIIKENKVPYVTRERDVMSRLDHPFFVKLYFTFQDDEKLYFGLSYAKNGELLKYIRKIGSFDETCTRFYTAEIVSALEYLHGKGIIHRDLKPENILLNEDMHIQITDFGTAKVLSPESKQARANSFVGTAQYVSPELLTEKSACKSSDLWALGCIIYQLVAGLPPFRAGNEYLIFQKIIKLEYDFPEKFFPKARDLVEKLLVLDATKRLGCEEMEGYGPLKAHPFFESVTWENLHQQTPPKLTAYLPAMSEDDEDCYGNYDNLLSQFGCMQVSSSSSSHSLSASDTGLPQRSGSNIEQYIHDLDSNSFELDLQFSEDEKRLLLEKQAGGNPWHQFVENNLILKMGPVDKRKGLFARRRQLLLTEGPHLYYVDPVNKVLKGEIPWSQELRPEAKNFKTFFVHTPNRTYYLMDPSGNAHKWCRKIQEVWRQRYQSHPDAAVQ

[4] = target: RAC-gamma serine/threonine-protein kinase (Homo sapiens) (UniProt Q9Y243); experiment: Percentage activity of human PKB gamma in the presence of 10uM of compound and 10uM of ATP in comparison with control
Sequence of RAC-gamma serine/threonine-protein kinase (Homo sapiens) (Q9Y243 whole entry): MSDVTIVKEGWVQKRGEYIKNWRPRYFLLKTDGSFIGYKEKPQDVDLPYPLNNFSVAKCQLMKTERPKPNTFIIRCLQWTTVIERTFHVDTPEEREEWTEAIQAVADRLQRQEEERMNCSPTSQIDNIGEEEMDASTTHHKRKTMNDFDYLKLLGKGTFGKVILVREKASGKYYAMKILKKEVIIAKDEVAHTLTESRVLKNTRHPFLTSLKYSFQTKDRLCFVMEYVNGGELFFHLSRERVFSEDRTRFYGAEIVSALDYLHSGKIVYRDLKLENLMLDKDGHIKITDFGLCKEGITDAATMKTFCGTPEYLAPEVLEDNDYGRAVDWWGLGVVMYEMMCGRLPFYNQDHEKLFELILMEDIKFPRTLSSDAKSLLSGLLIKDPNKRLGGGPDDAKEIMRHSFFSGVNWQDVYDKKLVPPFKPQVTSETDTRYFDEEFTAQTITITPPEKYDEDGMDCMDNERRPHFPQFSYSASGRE

[5] = target: Serine/threonine-protein kinase N2 (Homo sapiens) (UniProt Q16513); experiment: Percentage activity of human PRK2 in the presence of 10 uM of compound and 10 uM of ATP in comparison with control
Sequence of Serine/threonine-protein kinase N2 (Homo sapiens) (Q16513 whole entry, looked up): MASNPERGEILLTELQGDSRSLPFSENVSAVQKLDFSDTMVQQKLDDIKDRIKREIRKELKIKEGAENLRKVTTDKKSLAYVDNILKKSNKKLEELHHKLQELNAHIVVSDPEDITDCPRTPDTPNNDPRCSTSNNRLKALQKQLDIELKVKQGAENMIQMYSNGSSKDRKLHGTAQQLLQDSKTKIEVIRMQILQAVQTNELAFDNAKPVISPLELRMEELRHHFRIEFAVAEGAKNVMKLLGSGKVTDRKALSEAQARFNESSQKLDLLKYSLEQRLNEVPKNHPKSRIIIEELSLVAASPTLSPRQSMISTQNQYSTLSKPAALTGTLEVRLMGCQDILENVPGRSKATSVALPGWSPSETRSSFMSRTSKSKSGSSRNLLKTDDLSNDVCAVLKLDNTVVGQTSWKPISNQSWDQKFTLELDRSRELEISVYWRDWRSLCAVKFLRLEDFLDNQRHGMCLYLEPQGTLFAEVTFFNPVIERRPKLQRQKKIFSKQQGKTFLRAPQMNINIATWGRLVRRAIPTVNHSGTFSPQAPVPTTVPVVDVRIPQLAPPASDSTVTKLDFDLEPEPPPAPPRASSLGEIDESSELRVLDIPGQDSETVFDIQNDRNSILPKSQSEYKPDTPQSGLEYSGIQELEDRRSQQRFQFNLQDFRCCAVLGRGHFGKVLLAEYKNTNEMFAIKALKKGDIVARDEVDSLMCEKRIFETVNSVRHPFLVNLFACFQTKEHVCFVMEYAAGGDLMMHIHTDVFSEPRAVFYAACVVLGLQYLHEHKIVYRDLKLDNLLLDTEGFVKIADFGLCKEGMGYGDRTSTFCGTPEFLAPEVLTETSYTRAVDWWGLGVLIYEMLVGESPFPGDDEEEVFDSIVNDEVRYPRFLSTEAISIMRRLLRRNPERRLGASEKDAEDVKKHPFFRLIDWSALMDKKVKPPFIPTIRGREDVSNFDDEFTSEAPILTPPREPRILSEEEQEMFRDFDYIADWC

[6] = target: Tyrosine-protein kinase CSK (Homo sapiens) (UniProt P41240); experiment: Percentage activity of human CSK in the presence of 10uM of compound and 10uM of ATP in comparison with control
[7] = target: Protein kinase C epsilon type (Homo sapiens) (UniProt Q02156); experiment: Percentage activity of human PKC epsilon in the presence of 10 uM of compound and 10 uM of ATP in comparison with control
Sequence of Protein kinase C epsilon type (Homo sapiens) (Q02156 whole entry): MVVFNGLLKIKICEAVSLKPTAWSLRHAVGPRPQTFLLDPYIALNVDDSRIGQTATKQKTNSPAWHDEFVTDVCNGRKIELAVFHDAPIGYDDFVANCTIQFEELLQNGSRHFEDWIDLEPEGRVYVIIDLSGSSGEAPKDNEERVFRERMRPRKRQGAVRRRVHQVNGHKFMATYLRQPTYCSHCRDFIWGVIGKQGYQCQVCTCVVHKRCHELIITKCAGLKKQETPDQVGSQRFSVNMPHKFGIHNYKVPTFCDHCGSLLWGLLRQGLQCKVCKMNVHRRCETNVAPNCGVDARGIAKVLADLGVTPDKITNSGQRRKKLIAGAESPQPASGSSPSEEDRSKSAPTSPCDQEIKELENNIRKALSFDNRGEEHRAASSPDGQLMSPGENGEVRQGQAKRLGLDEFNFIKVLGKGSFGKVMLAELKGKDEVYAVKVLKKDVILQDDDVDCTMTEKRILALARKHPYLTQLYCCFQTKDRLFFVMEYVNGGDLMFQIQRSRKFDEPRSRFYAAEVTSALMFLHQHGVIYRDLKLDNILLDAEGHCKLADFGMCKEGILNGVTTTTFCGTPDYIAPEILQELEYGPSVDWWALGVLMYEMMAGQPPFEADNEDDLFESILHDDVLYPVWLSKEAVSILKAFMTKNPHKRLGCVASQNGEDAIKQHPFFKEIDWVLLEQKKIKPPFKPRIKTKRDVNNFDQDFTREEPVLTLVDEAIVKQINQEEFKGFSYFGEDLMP

[8] = target: Serine/threonine-protein kinase D1 (Homo sapiens) (UniProt Q15139); experiment: Percentage activity of human PKC mu in the presence of 10 uM of compound and 10 uM of ATP in comparison with control
[9] = target: Mitogen-activated protein kinase 13 (Homo sapiens) (UniProt O15264); experiment: Percentage activity of human SAPK4 in the presence of 10 uM of compound and 10 uM of ATP in comparison with control
[10] = target: MAP kinase-activated protein kinase 2 (Homo sapiens) (UniProt P49137); experiment: Percentage activity of human MAPKAP-K2 in the presence of 10uM of compound and 10uM of ATP in comparison with control
[11] = target: RAC-alpha serine/threonine-protein kinase (Homo sapiens) (UniProt P31749); experiment: Percentage activity of human PKB alpha in the presence of 10 uM of compound and 10 uM of ATP in comparison with control
[12] = target: Protein kinase C beta type (Homo sapiens) (UniProt P05771); experiment: Percentage activity of human PKC betaII -His in the presence of 10 uM of compound and 10 uM of ATP in comparison with control
[13] = target: Mitogen-activated protein kinase 1 (Homo sapiens) (UniProt P28482); experiment: Percentage activity of human MAPK1 in the presence of 10 uM of compound and 10 uM of ATP in comparison with control
[14] = target: Cyclin-dependent kinase 2/cyclin E (Homo sapiens) (UniProt P24864+P24941+O96020); experiment: Percentage activity of human CDK2 (with cyclin E) in the presence of 10 uM of compound and 10 uM of ATP in comparison with control; type: protein-complex assay
[15] = target: Tyrosine-protein kinase Fyn (Homo sapiens) (UniProt P06241); experiment: Percentage activity of human Fyn in the presence of 10 uM of compound and 10 uM of ATP in comparison with control
[16] = target: Tyrosine-protein kinase Lyn (Homo sapiens) (UniProt P07948); experiment: Percentage activity of human Lyn in the presence of 10 uM of compound and 10 uM of ATP in comparison with control
Sequence of Tyrosine-protein kinase Lyn (Homo sapiens) (P07948 2-512 limits assumed): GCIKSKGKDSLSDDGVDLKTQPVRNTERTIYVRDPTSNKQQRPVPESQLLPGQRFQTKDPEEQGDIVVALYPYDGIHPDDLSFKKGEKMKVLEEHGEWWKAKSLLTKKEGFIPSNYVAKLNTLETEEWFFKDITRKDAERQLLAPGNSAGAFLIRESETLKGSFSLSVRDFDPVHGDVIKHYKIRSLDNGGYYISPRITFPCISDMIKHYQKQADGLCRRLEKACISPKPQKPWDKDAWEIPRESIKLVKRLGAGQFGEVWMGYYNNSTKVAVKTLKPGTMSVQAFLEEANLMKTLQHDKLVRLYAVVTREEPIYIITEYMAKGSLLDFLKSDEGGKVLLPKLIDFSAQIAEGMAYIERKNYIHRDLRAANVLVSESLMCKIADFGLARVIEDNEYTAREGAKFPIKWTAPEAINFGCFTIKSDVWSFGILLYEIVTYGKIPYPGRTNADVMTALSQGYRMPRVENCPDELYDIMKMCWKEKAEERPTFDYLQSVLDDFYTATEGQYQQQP

[17] = target: Cyclin-dependent kinase 1/cyclin B (Homo sapiens) (UniProt P06493+P14635+Q8WWL7+O95067); experiment: Percentage activity of human CDK1 (with cyclin B) in the presence of 10 uM of compound and 10 uM of ATP in comparison with control; type: protein-complex assay
[18] = target: Tyrosine-protein kinase ZAP-70 (Homo sapiens) (UniProt P43403); experiment: Percentage activity of human ZAP-70 in the presence of 10 uM of compound and 10 uM of ATP in comparison with control
[19] = target: Ribosomal protein S6 kinase alpha-3 (Homo sapiens) (UniProt P51812); experiment: Percentage activity of human Rsk3 in the presence of 10uM of compound and 10uM of ATP in comparison with control
Sequence of Ribosomal protein S6 kinase alpha-3 (Homo sapiens) (P51812 whole entry): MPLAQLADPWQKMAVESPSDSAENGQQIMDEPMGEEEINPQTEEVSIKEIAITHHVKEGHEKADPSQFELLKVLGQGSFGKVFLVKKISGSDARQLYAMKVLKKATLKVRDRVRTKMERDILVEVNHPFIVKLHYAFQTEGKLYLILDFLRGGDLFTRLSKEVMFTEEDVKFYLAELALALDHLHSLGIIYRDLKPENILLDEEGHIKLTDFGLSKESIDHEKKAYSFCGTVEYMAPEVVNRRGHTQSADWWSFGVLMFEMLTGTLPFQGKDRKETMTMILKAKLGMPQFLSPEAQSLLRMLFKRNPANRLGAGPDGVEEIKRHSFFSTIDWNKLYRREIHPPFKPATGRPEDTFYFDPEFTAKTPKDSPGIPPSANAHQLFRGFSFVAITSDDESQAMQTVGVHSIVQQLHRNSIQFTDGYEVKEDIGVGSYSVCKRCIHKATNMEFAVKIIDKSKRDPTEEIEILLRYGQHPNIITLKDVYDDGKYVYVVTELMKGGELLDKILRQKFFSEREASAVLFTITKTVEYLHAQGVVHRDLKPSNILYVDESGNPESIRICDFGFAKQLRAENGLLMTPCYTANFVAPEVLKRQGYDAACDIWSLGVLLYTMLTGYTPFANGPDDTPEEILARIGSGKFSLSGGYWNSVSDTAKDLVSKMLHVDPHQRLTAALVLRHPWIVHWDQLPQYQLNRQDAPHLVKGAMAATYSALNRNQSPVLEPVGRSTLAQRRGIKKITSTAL

[20] = target: Mitogen-activated protein kinase 12 (Homo sapiens) (UniProt P53778); experiment: Percentage activity of human SAPK3 in the presence of 10 uM of compound and 10 uM of ATP in comparison with control
Sequence of Mitogen-activated protein kinase 12 (Homo sapiens) (P53778 whole entry): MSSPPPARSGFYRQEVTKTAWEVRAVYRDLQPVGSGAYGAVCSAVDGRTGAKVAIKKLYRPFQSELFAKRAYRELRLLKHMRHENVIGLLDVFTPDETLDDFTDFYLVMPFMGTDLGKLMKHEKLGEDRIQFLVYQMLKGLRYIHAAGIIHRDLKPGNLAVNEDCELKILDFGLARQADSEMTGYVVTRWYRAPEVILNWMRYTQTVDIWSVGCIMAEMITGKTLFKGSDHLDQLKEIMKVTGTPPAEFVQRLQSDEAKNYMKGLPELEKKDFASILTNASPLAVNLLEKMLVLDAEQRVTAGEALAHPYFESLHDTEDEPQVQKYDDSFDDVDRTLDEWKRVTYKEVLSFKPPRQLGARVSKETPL

[21] = target: Tyrosine-protein kinase Yes (Homo sapiens) (UniProt P07947); experiment: Percentage activity of human Yes in the presence of 10 uM of compound and 10 uM of ATP in comparison with control
Sequence of Tyrosine-protein kinase Yes (Homo sapiens) (P07947 2-543 limits assumed): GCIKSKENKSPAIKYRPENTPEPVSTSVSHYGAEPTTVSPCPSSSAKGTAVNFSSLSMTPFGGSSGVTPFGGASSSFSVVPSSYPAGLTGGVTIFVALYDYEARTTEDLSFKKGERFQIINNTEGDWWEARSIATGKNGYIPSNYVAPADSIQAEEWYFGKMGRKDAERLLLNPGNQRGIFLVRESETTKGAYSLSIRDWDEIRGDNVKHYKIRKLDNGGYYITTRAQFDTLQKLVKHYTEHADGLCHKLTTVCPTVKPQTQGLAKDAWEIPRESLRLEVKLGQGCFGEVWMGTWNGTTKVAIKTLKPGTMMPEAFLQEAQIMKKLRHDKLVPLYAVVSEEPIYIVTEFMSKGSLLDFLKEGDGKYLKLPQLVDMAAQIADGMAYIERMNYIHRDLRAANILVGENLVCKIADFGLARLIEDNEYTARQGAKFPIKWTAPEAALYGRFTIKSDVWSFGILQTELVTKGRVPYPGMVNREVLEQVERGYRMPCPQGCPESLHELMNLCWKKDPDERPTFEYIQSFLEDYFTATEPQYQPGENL

[22] = target: Tyrosine-protein kinase Fes/Fps (Homo sapiens) (UniProt P07332); experiment: Percentage activity of human Fes in the presence of 10 uM of compound and 10 uM of ATP in comparison with control
[23] = target: Tyrosine-protein kinase receptor UFO (Homo sapiens) (UniProt P30530); experiment: Percentage activity of human Axl in the presence of 10 uM of compound and 10 uM of ATP in comparison with control
Rattus norvegicus = organism: Rattus norvegicus; experiment: Percentage activity of rat AMPK in the presence of 10 uM of compound and 10 uM of ATP in comparison with control
[24] = target: cAMP-dependent protein kinase (PKA) (Homo sapiens) (UniProt P22694+P17612+P22612); experiment: Percentage activity of human PKA in the presence of 10 uM of compound and 10 uM of ATP in comparison with control; type: protein assay
[25] = target: Inhibitor of nuclear factor kappa-B kinase subunit beta (Homo sapiens) (UniProt O14920); experiment: Percentage activity of human IKK beta in the presence of 10uM of compound and 10uM of ATP in comparison with control
SCG [26] = experiment: Cell activity of JNK inhibitors in neuronal apoptosis assay in SCG cells, percentage rescued neurons at 3uM compound concentration after 24 hours; type: functional, Rattus norvegicus
SCG [27] = experiment: Cell activity of JNK inhibitors in neuronal apoptosis assay in SCG cells, percentage rescued neurons at 1 uM compound concentration after 24 hours; type: functional, cell-based; conditions: Rattus norvegicus
Saccharomyces cerevisiae = experiment: Percentage activity of yeast CK1 in the presence of 10 uM of compound and 10 uM of ATP in comparison with control
[28] = target: Platelet-derived growth factor receptor beta (Homo sapiens) (UniProt P09619); experiment: Percentage activity of human PDGFR beta in the presence of 10 uM of compound and 10 uM of ATP in comparison with control
[29] = target: Mitogen-activated protein kinase 9, JNK2 (Homo sapiens) (UniProt P45984); experiment: Percentage activity of human JNK2a2 in the presence of 10 uM of compound and 10 uM of ATP in comparison with control

`O=C(NCc1ccc(S(=O)(=O)N2CCC(n3nnc4ccccc43)CC2)s1)c1ccc(Cl)cc1` was tested, and the Activity [1] was 106%, the Activity [2] was 102% and the Activity [3] was 98%. For the same compound, the Activity [4] was 76%, the Activity [5] was 92% and the Activity [6] was 130%. It also gave an Activity [7] of 95%, an Activity [8] of 93% and an Activity [9] of 101%. For the same compound, the Activity [10] was 74%, the Activity [11] was 51% and the Activity [12] was 88%. It also gave an Activity [13] of 97%, an Activity [14] of 94% and an Activity [15] of 46%. It also gave an Activity [16] of 89%, an Activity [17] of 102% and an Activity [18] of 121%. The Activity [19] was 97%, the Activity [20] was 106% and the Activity [21] was 61%. The Activity [22] was 134%, the Activity [23] was 134% and the Activity (Rattus norvegicus) was 90%. For the same compound, the Activity [24] was 78%, the Activity [25] was 96% and the Rescued neurons (SCG [26]) was 22.9%. The Rescued neurons (SCG [27]) was “inactive”, the Activity (Saccharomyces cerevisiae) was 85% and the Activity [28] was 91%. For the same compound, the Activity [29] was 16%.
